Holding throughout (assay type): cell-based
The test system of experiment [1] is human hepatocellular carcinoma cell line SNU398. Briefly: Caspase cascade activation (Ac-DEVD-R110 fluorogenic substrate) in SNU398 cells. To be noted: SNU-398, incubated 24 or 48 h (Table I), 0.016 to 10 μM final, read-out: Caspase Activation Potency EC50 SNU398. The procedure: (§1) Human breast cancer cell line T-47D, human hepatocellular carcinoma cell line SNU398 and human colon carcinoma cell line HCT116 were grown according to media component mixtures designated by American Type Culture Collection+10% FCS (Invitrogen Corporation), in a 5% CO2-95% humidity incubator at 37° C. T-47D and H1299 cells were maintained at a cell density between 50 and 80% confluency at a cell density of 0.1 to 0.6×10^6 cells/mL. Cells were harvested at 600×g and resuspended at 0.65×10^6 cells/mL into appropriate media+10% FCS. An aliquot of 22.5 μL of cells was added to a well of a 384-well microtiter plate containing 2.5 μL of a 10% DMSO in RPMI-1640 media solution containing 0.16 to 100 μM of 5,7-dihydro-N-(3,5-dimethoxyphenyl)-2-(methylthio)furo[3,4-d]pyrimidin-4-amine or other test compound (0.016 to 10 μM final). An aliquot of 22.5 μL of cells was added to a well of a 384-well microtiter plate containing 2.5 μL of a 10% DMSO in RPMI-1640 media solution without test compound as the control sample. The samples were mixed by agitation and then incubated at 37° C. for 24 or 48 h in a 5% CO2-95% humidity incubator. After incubation, the samples were removed from the incubator and 25 μL of a solution containing 14 μM of N-(Ac-DEVD)-N′-ethoxycarbonyl-R110 (SEQ ID No.:1) fluorogenic substrate (Cytovia, Inc.; WO99/18856), 20% sucrose (Sigma), 20 mM DTT (Sigma), 200 mM NaCl (Sigma), 40 mM Na PIPES buffer pH 7.2 (Sigma), and 500 µg/mL lysolecithin (Calbiochem) was added. The samples were mixed by agitation and incubated at room temperature. Using a fluorescent plate reader (Model SPECTRAfluor Plus, Tecan), an initial reading (T=0) was made approximately 1-2 min after addition of the substrate solution, employing excitation at 485 nm and emission at 530 nm, to determine the background fluorescence of the control sample. After the 3 h incubation, the samples were read for fluorescence as above (T=3 h).
(§2) The Relative Fluorescence Unit values (RFU) were used to calculate the sample readings as follows: RFU(T=3h)−Control RFU(T=0)=Net RFU(T=3h)
(§3) The activity of caspase cascade activation was determined by the ratio of the net RFU value for 5,7-dihydro-N-(3,5-dimethoxyphenyl)-2-(methylthio)furo[3,4-d]pyrimidin-4-amino or other test compound to that of control samples. The EC50 (nM) was determined by a sigmoidal dose-response calculation (Prism 3.0, GraphPad Software Inc.).

Experiment [2] concerns human colon carcinoma cell line HCT116. Briefly: Caspase cascade activation (Ac-DEVD-R110 fluorogenic substrate) in HCT116 cells. Conditions: HCT-116, incubated 24 or 48 h (Table I), 0.016 to 10 μM final, read-out: Caspase Activation Potency EC50 HCT116. The procedure: as §1, §2, §3
Experiment [3] concerns Human breast cancer cell line T-47D. Briefly: Caspase cascade activation (Ac-DEVD-R110 fluorogenic substrate) in T-47D cells. To be noted: T47D, T-47D, incubated 24 or 48 h (Table I), 0.016 to 10 μM final, read-out: Caspase Activation Potency EC50 T-47D. The procedure: as §1, §2, §3

The text below walks through data of US20080113946A1, “N-aryl-5,7-dihydrofuro[3,4-d]pyrimidin-4-amines and analogs as activators of caspases and inducers of apoptosis and the use thereof” (Cyntovia, Inc., priority 2006, published 2008).

Structures are written as SMILES. A value given as a limit tells only on which side of the number the result lay.

In the case of `COc1ccc(N(C)c2nc(Cl)nc3c2CN(C(=O)OCC2c4ccccc4-c4ccccc42)C3)cc1` [Example 31, (9H-Fluoren-9-yl)methyl 4-(N-(4-methoxyphenyl)-N-methylamino)-2-chloro-5H-pyrrolo[3,4-d]pyrimidine-6(7H)-carboxylate], the EC50 in experiment [1] was 5 µM; in experiment [2], above 10 µM; in experiment [3], above 10 µM.
As for `CSc1nc2c(c(Nc3cccc(Br)c3)n1)CCC2` [Example 19, N-(3-Bromophenyl)-6,7-dihydro-2-(methylthio)-5H-cyclopenta[d]pyrimidin-4-amine], the EC50 in experiment [1], in experiment [2] and in experiment [3] was above 10 µM in each case.
With `COc1cc(Nc2ncnc3c2COC3)cc(OC)c1` [Example 9, 5,7-Dihydro-N-(3,5-dimethoxyphenyl)-furo[3,4-d]pyrimidin-4-amine], the EC50 was above 10 µM in experiment [1], above 10 µM in experiment [2] and 1.19 µM in experiment [3].
On to `Cc1cc(Nc2nc3c(c(Sc4ccc(NC(=O)C5CC5)cc4)n2)COC3)[nH]n1` [Example 16, N-(4-(2-(3-Methyl-1H-pyrazol-5-ylamino)-5,7-dihydrofuro[3,4-d]pyrimidin-4-ylthio)phenyl)cyclopropanecarboxamide], for which the EC50 in experiment [1], in experiment [2] and in experiment [3] was above 10 µM throughout.
Consider `Cc1nc2c(c(Nc3cccc(Br)c3)n1)COC2` [Example 10, 5,7-Dihydro-N-(3-bromophenyl)-2-methylfuro[3,4-d]pyrimidin-4-amine], for which the EC50 in experiment [1], in experiment [2] and in experiment [3] was above 10 µM each time.
On to `Cc1cc(Nc2nc(N3CCN(C)CC3)nc3c2COC3)[nH]n1` [Example 32, 5,7-Dihydro-N-(3-methyl-1H-pyrazol-5-yl)-2-(4-methylpiperazin-1-yl)furo[3,4-d]pyrimidin-4-amine], for which the EC50 in experiment [1], in experiment [2] and in experiment [3] was above 10 µM each time.
Turning to `COc1cc(Nc2nc(SC)nc3c2CCC3)cc(OC)c1` [Example 21, 6,7-Dihydro-N-(3,5-dimethoxyphenyl)-2-(methylthio)-5H-cyclopenta[d]pyrimidin-4-amine], the EC50 is 2.56 µM in experiment [1], above 10 µM in experiment [2] and 0.063 µM in experiment [3].
Consider `Cc1cc(Nc2nc(N3CCN(C)CC3)nc3c2CNC3)[nH]n1` [Example 28, [2-(4-Methyl-piperazin-1-yl)-6,7-dihydro-5H-pyrrolo[3,4-d]pyrimidin-4-yl]-(5-methyl-2H-pyrazol-3-yl)-amine], for which the EC50 in experiment [1], in experiment [2] and in experiment [3] was above 10 µM throughout.
Turning to `Cc1cc(Nc2nc(Sc3ccc(NC(=O)C4CC4)cc3)nc3c2COC3)[nH]n1` [Example 14, N-(4-(4-(3-Methyl-1H-pyrazol-5-ylamino)-5,7-dihydrofuro[3,4-d]pyrimidin-2-ylthio)phenyl)cyclopropanecarboxamide], the EC50 in experiment [1] came out at 1.36 µM; in experiment [2], 2.42 µM; in experiment [3], 2.74 µM.
Consider `COc1cc(Nc2nc(C)nc3c2COC3)cc(OC)c1` [Example 11, 5,7-Dihydro-N-(3,5-dimethoxyphenyl)-2-methylfuro[3,4-d]pyrimidin-4-amine], for which the EC50 is above 10 µM in experiment [1], above 10 µM in experiment [2] and 1.29 µM in experiment [3].
Turning to `O=C(Nc1ccc(Sc2nc(Cl)nc3c2CN(C(=O)OCC2c4ccccc4-c4ccccc42)C3)cc1)C1CC1` [Example 29, (9H-Fluoren-9-yl)methyl 2-chloro-4-((4-(cyclopropanecarboxamido)phenyl)sulfanyl)-5H-pyrrolo[3,4-d]pyrimidine-6(7H)-carboxylate], the EC50 in experiment [1], in experiment [2] and in experiment [3] was above 10 µM in each case.
Consider `Cc1cc(Nc2nc(S(C)(=O)=O)nc3c2COC3)[nH]n1` [Example 13, 5,7-Dihydro-N-(3-methyl-1H-pyrazol-5-yl)-2-(methylsulfonyl)furo[3,4-d]pyrimidin-4-amine], for which the EC50 in experiment [1], in experiment [2] and in experiment [3] was above 10 µM each time.
As to `COc1ccc(N(C)c2nc(SC)nc3c2COC3)cc1` [Example 8, 5,7-Dihydro-N-(4-methoxyphenyl)-N-methyl-2-(methylthio)furo[3,4-d]pyrimidin-4-amine], the EC50 in experiment [1] was 2.56 µM; in experiment [2], 5.15 µM; in experiment [3] it was 3.19 µM.
For the compound `CSc1nc2c(c(Nc3cc(C)n[nH]3)n1)CCC2` [Example 20, 6,7-Dihydro-N-(5-methyl-1H-pyrazol-3-yl)-2-(methylthio)-5H-cyclopenta[d]pyrimidin-4-amine], the EC50 in experiment [1] is 2.69 µM; in experiment [2] it was at least 10.6 µM; in experiment [3], above 10 µM.
On to `O=C(Nc1ccc(Nc2ncnc3c2CCC3)cc1)c1ccccc1` [Example 26, N-(4-(6,7-Dihydro-5H-cyclopenta[d]pyrimidin-4-ylamino)phenyl)benzamide], for which the EC50 in experiment [1], in experiment [2] and in experiment [3] was above 10 µM in each case.
`CS(=O)(=O)c1nc2c(c(Sc3ccc(NC(=O)C4CC4)cc3)n1)COC2` [Example 15, N-(4-(5,7-Dihydro-2-(methylsulfonyl)furo[3,4-d]pyrimidin-4-ylthio)phenyl)cyclopropanecarboxamide]: the EC50 in experiment [1] is 9.07 µM; in experiment [2], at least 14.2 µM; in experiment [3] it was 14.1 µM.
The matching figures for `CSc1nc2c(c(Nc3ccc(NC(=O)c4ccccc4)cc3)n1)CCC2` [Example 22, N-(4-(6,7-Dihydro-2-(methylthio)-5H-cyclopenta[d]pyrimidin-4-ylamino)phenyl)benzamide]: above 10 µM, above 10 µM and above 10 µM.
As for `CSc1nc2c(c(Nc3cc(C)n[nH]3)n1)COC2` [Example 12, 5,7-Dihydro-N-(3-methyl-1H-pyrazol-5-yl)-2-(methylthio)furo[3,4-d]pyrimidin-4-amine], the EC50 in experiment [1], in experiment [2] and in experiment [3] was above 10 µM throughout.
In the case of `Cc1cc(Nc2nc(Cl)nc3c2CN(C(=O)OCC2c4ccccc4-c4ccccc42)C3)[nH]n1` [Example 17, (9H-Fluoren-9-yl)methyl 4-(3-methyl-1H-pyrazol-5-ylamino)-2-chloro-5H-pyrrolo[3,4-d]pyrimidine-6(7H)-carboxylate], the concentration giving a half-maximal response (EC50) in experiment [1], in experiment [2] and in experiment [3] was above 10 µM each time.
For the compound `COc1cc(Nc2nc(Cl)nc3c2CN(C(=O)OCC2c4ccccc4-c4ccccc42)C3)cc(N(C)C)c1` [Example 30, (9H-Fluoren-9-yl)methyl 4-(3-(dimethylamino)-5-methoxyphenylamino)-2-chloro-5H-pyrrolo[3,4-d]pyrimidine-6(7H)-carboxylate], the results for the EC50 in experiment [1], in experiment [2] and in experiment [3] were above 10 µM, above 10 µM and 1.57 µM, respectively.
